Reference: the NIST ThermoML archive (doi:10.1016/j.jct.2015.12.014)

Legend:
[1] = Molar enthalpy of transition or fusion; conditions: Crystal; DSC
[2] = Crystal; for vapor or sublimation pressure: Calculated from knudsen effusion weight loss
[3] = molar heat capacity at constant pressure; conditions: 101.33 kPa, Crystal, Small sample (50 mg) DSC

O=C(O)/C=C\c1ccccc1 [cis-cinnamic acid]
Conditions	Molar enthalpy of transition or fusion [kcal/mol]
[1]	4.02

Conditions	Normal melting temperature [°C]	molar heat capacity at constant pressure [J/K/mol]	vapor or sublimation pressure [kPa]
[2], 306.21 K	–	–	8.16e-05
[2], 308.18 K	–	–	0.0001123
[2], 310.2 K	–	–	0.0001346
[2], 312.15 K	–	–	0.0001819
[2], 314.14 K	–	–	0.0002297
[2], 316.16 K	–	–	0.0002837
[2], 318.1 K	–	–	0.0003808
[2], 320.19 K	–	–	0.0004592
[2], 322.05 K	–	–	0.000572
[2], 324.08 K	–	–	0.0007647
[2], 326.1 K	–	–	0.0009201
[2], DTA	67.0	–	–
[3], 257.15 K	–	155	–
[3], 258.15 K	–	155.9	–
[3], 259.15 K	–	156	–
[3], 260.15 K	–	156.5	–
[3], 261.15 K	–	156.9	–
[3], 262.15 K	–	157.5	–
[3], 263.15 K	–	158.1	–
[3], 264.15 K	–	158.7	–
[3], 265.15 K	–	159.1	–
[3], 266.15 K	–	159.7	–
[3], 267.15 K	–	160.2	–
[3], 268.15 K	–	160.8	–
[3], 269.15 K	–	161.2	–
[3], 270.15 K	–	161.6	–
[3], 271.15 K	–	162.2	–
[3], 272.15 K	–	163	–
[3], 273.15 K	–	163.3	–
[3], 274.15 K	–	163.9	–
[3], 275.15 K	–	164.3	–
[3], 276.15 K	–	165.3	–
[3], 277.15 K	–	165.8	–
[3], 278.15 K	–	166.2	–
[3], 279.15 K	–	166.7	–
[3], 280.15 K	–	167.3	–
[3], 281.15 K	–	167.9	–
[3], 282.15 K	–	168.5	–
[3], 283.15 K	–	169.1	–
[3], 284.15 K	–	169.5	–
[3], 285.15 K	–	170.4	–
[3], 286.15 K	–	170.8	–
[3], 287.15 K	–	171.4	–
[3], 288.15 K	–	171.9	–
[3], 289.15 K	–	172.6	–
[3], 290.15 K	–	173.2	–
[3], 291.15 K	–	173.9	–
[3], 292.15 K	–	174.5	–
[3], 293.15 K	–	175.1	–
[3], 294.15 K	–	175.9	–
[3], 295.15 K	–	176.5	–
[3], 296.15 K	–	176.9	–
[3], 297.15 K	–	177.6	–
[3], 298.15 K	–	178.1	–
[3], 299.15 K	–	178.7	–
[3], 300.15 K	–	179.1	–
[3], 301.15 K	–	179.9	–
[3], 302.15 K	–	180.6	–
[3], 303.15 K	–	181.3	–
[3], 304.15 K	–	182.1	–
[3], 305.15 K	–	183	–
[3], 306.15 K	–	183.7	–
[3], 307.15 K	–	184.6	–
[3], 308.15 K	–	185.3	–
[3], 309.15 K	–	185.9	–
[3], 310.15 K	–	186.8	–
[3], 311.15 K	–	187.9	–
[3], 312.15 K	–	188.6	–
[3], 313.15 K	–	189.3	–
[3], 314.15 K	–	190.2	–
[3], 315.15 K	–	191.3	–
[3], 316.15 K	–	192.3	–
[3], 317.15 K	–	193.5	–
[3], 318.15 K	–	194.5	–
[3], 319.15 K	–	195.9	–
[3], 320.15 K	–	197.5	–
[3], 321.15 K	–	199.1	–
[3], 322.15 K	–	201.1	–
